“And” between values parts separate entries of the source, which are not always exact repeats. Identical values can stand only once.

Common to all, as to type: cell-based, human
Assay [1] has as its system PB nTreg. As to the kind of experiment: Ex vivo expansion of PB nTreg cultures (fold expansion). As to conditions: sort-purified nTregs, first stimulation with KT64/86 cells; Rapamycin 109 nM. The procedure:
Experiments were designed to expand Tregs isolated from adult peripheral blood. Tregs were isolated by a two step procedure in which CD4 cells were first enriched by depleting CD8, −14, and −19+ cells with GMP-grade mAb coated microbeads, followed by positive selection of CD25++ cells using GMP-grade anti-CD25 microbeads (either 75μl/2×10^8 cells, Miltenyi). Treg were subsequently expanded in vitro by repeated stimulation with CD3/28 beads or KT64/86 loaded with anti-CD3 antibody. In addition, the expansion scheme involved expanding Tregs in the presence of Rapamycin (109 nM) and restimulation based upon cell size.
For all experiments, non-mobilized peripheral blood Leukapheresis products were collected from normal adult volunteers using FDA approved/cleared apheresis instruments. Written informed consent was obtained from all subjects. nTreg were purified using GMP magnetic beads or by sorting. […]
(§1) Where indicated, Rapamycin (Rapammune, Wyeth-Ayerst) at 109 nM was added on day 0 and with subsequent media supplementation. Cell size and viability were determined by ViCell (Beckman Coulter).

Assay [2] relates to PB nTreg. As to the kind of experiment: Cell size and viability of nTreg cultures by ViCell. Conditions: sort-purified nTregs stimulated with KT64/86 cells; Rapamycin 109 nM. The procedure:
as §1

A further assay concerns nTreg cultures. As to the kind of experiment: Intracellular cytokine staining after PMA/Ionomycin. The procedure: Fresh or frozen nTreg were cultured in supplemented X-Vivo 15 for 4 hours±PMA ([…]) and Ionomycin (1 μg/ml) in the presence of Brefeldin A (100 ng/ml) (all Sigma). Frozen/thawed samples were cultured for 1 hour at 37° C. prior to re-stimulation. Cells were then harvested and stained for CD4, 25, Foxp3 and cytokine (IL-2, IL-4, IL-17, and IFNγ) or Granzyme B using the standard Foxp3 intracellular staining kit.

Setting [3] is: sort-purified nTreg re-stimulated with KT64/86.

On to `CO[C@H]1C[C@@H]2CC[C@@H](C)[C@@](O)(O2)C(=O)C(=O)N2CCCC[C@H]2C(=O)O[C@H]([C@H](C)C[C@@H]2CC[C@@H](O)[C@H](OC)C2)CC(=O)[C@H](C)/C=C(\C)[C@@H](O)[C@@H](OC)C(=O)[C@H](C)C[C@H](C)/C=C/C=C/C=C/1C` [Rapamycin], for which the “Expansion with Rapamycin” value in the assay with PB nTreg [1] came to 55 fold. In the assay on PB nTreg [2], this compound registered a Peak cell size with Rapamycin of 9.9 µm. Moreover, in the assay with nTreg cultures (setting [3]), the “% of PMA/ionomycin stimulated cells secreting IL-2, with Rapamycin” value is on record as not above 3% and the “% of cells secreting IFNγ, with Rapamycin” value is not above 2%. The “% IL-4+ cells, start of the increase with successive re-stimulations” value in the assay with nTreg cultures (with Rapamycin) is given as 8±2%. Besides, the “% IL-4+ cells after the last (fourth) re-stimulation” value in the assay with nTreg cultures (with Rapamycin, Foxp3+ and −) is 58±17% and > 50%.

Values taken from patent publication US20250283040A1, “Methods to Expand a T Regulatory Cell Master Cell Bank” (The Trustees of the University of Pennsylvania, priority 2010, published 2025).
